# Data taken from patent publication US8691222B2, “NLRR-1 antagonists and uses thereof” (Genentech, Inc., priority 2007, dated 2014).
# Assays:
# [1] = system: lung tumor cell lines which endogenously express NLRR-1; settings: several lung tumor cell lines classified as resistant to erlotinib; cited from earlier work
# NCI-H2009 cells [2] = settings: NCI-H2009, characterized as sensitive to erlotinib; cited from earlier work
# NCI-H647 cells = assay: Apoptosis and erlotinib synergy assay, NCI-H647; format: cell-based, human; settings: NLRR-1 siRNA knockdown plus increasing concentrations of erlotinib; NCI-H647, erlotinib-resistant; FIG. 8A
# Description: (§1) The NLRR-1 siRNA duplex was designed and synthesized by Dharmacon (Lafayette, Colo.). The sense sequence is […] (SEQ ID NO: 11) and the antisense sequence is 5′-[…] (SEQ ID NO: 12). NCI-H2009, NCI-H647, NCI-H226, and SK-MES-1 cells were seeded at 2830/cm^2 and NCI-H520 and NCI-H1781 cells were seeded at 5660/cm^2. 100 nM of siRNA was transfected with DharmaFECT 4 for 6 to 8 hours before the transfectant was replaced with fresh media. A non-targeting siRNA sequence (Dharmacon) was used as a negative control. RT-PCR was performed on RNA extracted from 60 mm plates using RNeasy (Qiagen, Valencia, Calif.) per manufacturer's instructions. EGFR flow cytometry and immunoblot: After siRNA transfection for 24 hours, cells were harvested and stained with α-EGFR antibody conjugated to PE (BD Pharmingen) and propidium iodide for flow cytometry analysis. 10,000 events were collected and cells were gated on FSC, SSC, and PI. For immunoblot analysis, lysates were immunoblotted with α-EGFR (MBL) or α-βtubulin (Santa Cruz Biotechnology). […] Cell growth was assessed after 4 days by Cell Titer Glo (Promega, Madison, Wis.) per manufacturer's instructions. […] For apoptosis assay with starvation, cells were starved in Optimem I. For both assays, cell viability was measured with Cell Titer Glo (Promega, Madison, Wis.) and apoptosis was measured with Caspase-Glo 3/7 (Promega) after 2 days. […]
# NCI-H1781 cells = assay: Apoptosis and erlotinib synergy assay, NCI-H1781; format: cell-based, human; settings: NLRR-1 siRNA knockdown plus increasing concentrations of erlotinib; NCI-H1781, resistant; FIG. 8B
# Description: as §1
# [3] = system: EGFR in NCI-H2009, NCI-H226, NCI-H647 cells; assay: EGFR flow cytometry and immunoblot after NLRR-1 siRNA knockdown; format: cell-based, human
# Description: as §1
# NCI-H520 cells = assay: Apoptosis and erlotinib synergy assay, NCI-H520; format: cell-based, human; settings: NLRR-1 siRNA knockdown plus increasing concentrations of erlotinib; NCI-H520, resistant; FIG. 8D
# Description: as §1
# [4] = system: SK-MES1 lung carcinoma cell line; assay: Proliferation assay (Cell Titer Glo) after siRNA knockdown, SK-MES1; format: cell-based, human; settings: 100 nM siRNA; 4 days; SK-MES1, does not express NLRR-1
# Description: as §1
# NCI-H226 cells = assay: Apoptosis and erlotinib synergy assay, NCI-H226; format: cell-based, human; settings: NLRR-1 siRNA knockdown plus increasing concentrations of erlotinib; NCI-H226, resistant; FIG. 8C
# Description: as §1
# NCI-H2009 cells [5] = assay: Apoptosis and erlotinib synergy assay, NCI-H2009; format: cell-based, human; settings: NLRR-1 siRNA knockdown plus increasing concentrations of erlotinib; NCI-H2009, erlotinib-sensitive; FIG. 8E
# Description: as §1
# [6] = system: SK-MES cells (NLRR-1-negative); assay: Apoptosis and erlotinib synergy assay, SK-MES; format: cell-based, human; settings: NLRR-1 siRNA knockdown plus increasing concentrations of erlotinib, erlotinib-sensitive, FIG. 8F
# Description: as §1
# [7] = system: cell lines that endogenously expressed NLRR-1; assay: Apoptosis assay with starvation (caspase 3/7) after siRNA knockdown; format: cell-based, human; settings: vs non-targeting control RNA
# Description: as §1, with “instructions.” for “instructions. EGFR flow cytometry and immunoblot: After siRNA transfection for 24 hours, cells were harvested and stained with α-EGFR antibody conjugated to PE (BD Pharmingen) and propidium iodide for flow cytometry analysis. 10,000 events were collected and cells were gated on FSC, SSC, and PI. For immunoblot analysis, lysates were immunoblotted with α-EGFR (MBL) or α-βtubulin (Santa Cruz Biotechnology).”
# EGFR pathway activation in tumor cells has consequences for many important cellular processes, including cell survival. […] NLRR-1 was knocked down using siRNA, cells were subjected to starvation to promote apoptosis, and apoptosis was measured by caspase 3/7 activity and normalized for viable cells (FIG. 6C).
Compound,IC50 [1] [µM],IC50 (NCI-H2009 cells [2]) [nM],apoptosis (caspase 3/7 activity) in presence of erlotinib (NCI-H647 cells),apoptosis (caspase 3/7 activity) in presence of erlotinib (NCI-H1781 cells),"total EGFR protein level ([3]; NLRR-1 depleted vs control-depleted cells, immunoblot)","surface EGFR protein level ([3]; siRNA knockdown 24 hours, NCI-H2009, NCI-H226, NCI-H647, vs non-targeting siRNA, flow cytometry)",apoptosis (caspase 3/7 activity) in presence of erlotinib (NCI-H520 cells),proliferation (ATP-based cell viability) [4],apoptosis (caspase 3/7 activity) in presence of erlotinib (NCI-H226 cells),apoptosis (caspase 3/7 activity) in presence of erlotinib (NCI-H2009 cells [5]),apoptosis (caspase 3/7 activity) in presence of erlotinib [6],apoptosis (caspase 3/7 activity normalized for viable cells) [7]
C#Cc1cccc(Nc2ncnc3cc(OCCOC)c(OCCOC)cc23)c1 [erlotinib],≥ 8,≤ 2000,,,,,,,,,,
"NLRR-1 siRNA: siRNA duplex by Dharmacon; sense GCCAGAACCUGAAAUUUACUU (SEQ ID NO: 11), antisense 5′-PGUAAAUUUCAGGUUCUGGCUU (SEQ ID NO: 12) (5' phosphate on antisense, further chemistry not given here)",,,significant increase in sensitivity,synergy,unchanged,increase in surface EGFR,"possibly also, to a lesser degree",no significant defect in proliferation,synergy,did not show any increased apoptosis,did not show any increase in apoptosis,increase in apoptosis
